# According to PMC10924921, “Mi-2β promotes immune evasion in melanoma by activating EZH2 methylation” (Nature Communications, 2024):
# How the values were obtained:
# Assay in all cases: biochemical
# Set-up in all cases: KINOMEscan active-site competition binding panel (468 kinase assays), per cent of control at 1000 nM
# Conditions in all cases: KINOMEscan per cent of control (binding competition); read-out: Percent Control
# [1] = biological target: T1, ABL1(H396P)-phosphorylated (Homo sapiens, UniProt P00519, H396P)
# T1 construct: phosphorylated
# Excerpt: (§1) Figure S7 / Percent Control
# [2] = biological target: T2, ADCK3 (Homo sapiens, UniProt Q8NI60)
# T2 construct: gene COQ8A
# Excerpt: as §1
# [3] = biological target: ANKK1 (Homo sapiens, UniProt Q8NFD2)
# Excerpt: as §1
# [4] = biological target: AURKA (Homo sapiens, UniProt O14965)
# Excerpt: as §1
# [5] = biological target: CAMK1G (Homo sapiens, UniProt Q96NX5)
# Excerpt: as §1
# [6] = biological target: CDK5 (Homo sapiens, UniProt Q00535)
# Excerpt: as §1
# [7] = biological target: CSF1R-autoinhibited (Homo sapiens, UniProt P07333)
# Excerpt: as §1
# [8] = biological target: CSNK1G2 (Homo sapiens, UniProt P78368)
# Excerpt: as §1
# [9] = biological target: EPHB2 (Homo sapiens, UniProt P29323)
# Excerpt: as §1
# [10] = biological target: HIPK1 (Homo sapiens, UniProt Q86Z02)
# Excerpt: as §1
# [11] = biological target: T3, JNK1 (Homo sapiens, UniProt P45983)
# T3 construct: gene MAPK8
# Excerpt: as §1
# [12] = biological target: T4, JNK2 (Homo sapiens, UniProt P45984)
# T4 construct: gene MAPK9
# Excerpt: as §1
# [13] = biological target: LRRK2(G2019S) (Homo sapiens, UniProt Q5S007, G2019S)
# Excerpt: as §1
# [14] = biological target: T5, MEK4 (Homo sapiens, UniProt P45985)
# T5 construct: gene MAP2K4
# Excerpt: as §1
# [15] = biological target: T6, MEK6 (Homo sapiens, UniProt P52564)
# T6 construct: gene MAP2K6
# Excerpt: as §1
# [16] = biological target: T7, MST4 (Homo sapiens, UniProt Q9P289)
# T7 construct: gene STK26
# Excerpt: as §1
# [17] = biological target: NEK4 (Homo sapiens, UniProt P51957)
# Excerpt: as §1
# [18] = biological target: NEK9 (Homo sapiens, UniProt Q8TD19)
# Excerpt: as §1
# [19] = biological target: PIK3CA(Q546K) (Homo sapiens, UniProt P42336, Q546K)
# Excerpt: as §1
# [20] = biological target: PIP5K1A (Homo sapiens, UniProt Q99755)
# Excerpt: as §1
# [21] = biological target: PRKG1 (Homo sapiens, UniProt Q13976)
# Excerpt: as §1
# [22] = biological target: T8, PYK2 (Homo sapiens, UniProt Q14289)
# T8 construct: gene PTK2B
# Excerpt: as §1
# [23] = biological target: SRPK1 (Homo sapiens, UniProt Q96SB4)
# Excerpt: as §1
# [24] = biological target: TLK1 (Homo sapiens, UniProt Q9UKI8)
# Excerpt: as §1
# [25] = biological target: T9, YES (Homo sapiens, UniProt P07947)
# T9 construct: gene YES1
# Excerpt: as §1
# EPHB2, sequence (P29323 whole entry): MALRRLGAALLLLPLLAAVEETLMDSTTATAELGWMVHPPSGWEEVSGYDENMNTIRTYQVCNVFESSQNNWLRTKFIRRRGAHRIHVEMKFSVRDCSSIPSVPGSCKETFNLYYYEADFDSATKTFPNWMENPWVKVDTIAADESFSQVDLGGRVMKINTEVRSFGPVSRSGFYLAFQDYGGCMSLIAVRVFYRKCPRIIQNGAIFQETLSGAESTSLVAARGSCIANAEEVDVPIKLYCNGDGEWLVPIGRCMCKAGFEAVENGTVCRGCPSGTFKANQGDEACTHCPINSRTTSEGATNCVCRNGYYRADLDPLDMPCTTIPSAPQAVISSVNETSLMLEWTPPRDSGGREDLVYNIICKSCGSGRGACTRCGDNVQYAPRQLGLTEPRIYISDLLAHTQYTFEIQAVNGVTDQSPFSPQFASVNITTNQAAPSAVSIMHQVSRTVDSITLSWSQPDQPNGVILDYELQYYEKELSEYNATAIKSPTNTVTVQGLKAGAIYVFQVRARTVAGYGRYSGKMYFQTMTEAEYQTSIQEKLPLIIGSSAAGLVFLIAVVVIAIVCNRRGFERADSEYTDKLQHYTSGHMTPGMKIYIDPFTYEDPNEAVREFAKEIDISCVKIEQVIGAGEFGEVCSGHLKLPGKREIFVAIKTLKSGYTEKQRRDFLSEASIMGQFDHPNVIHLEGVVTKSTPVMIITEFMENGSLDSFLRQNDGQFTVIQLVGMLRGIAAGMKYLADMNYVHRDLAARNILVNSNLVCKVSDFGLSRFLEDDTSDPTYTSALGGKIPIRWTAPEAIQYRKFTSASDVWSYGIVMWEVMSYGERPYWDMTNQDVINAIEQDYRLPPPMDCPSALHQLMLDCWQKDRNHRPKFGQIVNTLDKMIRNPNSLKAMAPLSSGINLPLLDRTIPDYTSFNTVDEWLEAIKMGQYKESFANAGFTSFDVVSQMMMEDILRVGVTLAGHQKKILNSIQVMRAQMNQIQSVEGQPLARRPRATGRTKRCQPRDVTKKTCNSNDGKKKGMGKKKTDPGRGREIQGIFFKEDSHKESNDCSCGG
# NEK4, sequence (P51957 whole entry): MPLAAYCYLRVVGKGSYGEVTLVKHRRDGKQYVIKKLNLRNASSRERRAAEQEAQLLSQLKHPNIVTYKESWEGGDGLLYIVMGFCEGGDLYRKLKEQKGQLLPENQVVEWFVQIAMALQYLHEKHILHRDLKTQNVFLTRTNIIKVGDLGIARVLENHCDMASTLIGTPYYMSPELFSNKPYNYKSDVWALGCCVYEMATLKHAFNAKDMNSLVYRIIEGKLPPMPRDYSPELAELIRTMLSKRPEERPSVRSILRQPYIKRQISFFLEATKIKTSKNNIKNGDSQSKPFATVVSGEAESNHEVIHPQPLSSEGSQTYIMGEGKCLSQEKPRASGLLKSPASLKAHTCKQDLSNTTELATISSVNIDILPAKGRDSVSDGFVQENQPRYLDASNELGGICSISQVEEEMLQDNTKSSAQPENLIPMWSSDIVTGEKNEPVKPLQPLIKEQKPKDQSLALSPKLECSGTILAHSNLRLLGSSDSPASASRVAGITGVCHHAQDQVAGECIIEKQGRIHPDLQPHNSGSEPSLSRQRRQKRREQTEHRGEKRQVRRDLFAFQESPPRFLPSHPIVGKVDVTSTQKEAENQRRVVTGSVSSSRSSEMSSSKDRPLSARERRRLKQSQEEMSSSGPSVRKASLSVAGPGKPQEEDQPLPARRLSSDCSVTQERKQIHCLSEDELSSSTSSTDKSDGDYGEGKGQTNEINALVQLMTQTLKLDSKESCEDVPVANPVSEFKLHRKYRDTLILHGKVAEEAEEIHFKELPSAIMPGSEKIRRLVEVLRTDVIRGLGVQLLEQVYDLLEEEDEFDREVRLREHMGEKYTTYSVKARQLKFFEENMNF
# CAMK1G, sequence (Q96NX5 whole entry): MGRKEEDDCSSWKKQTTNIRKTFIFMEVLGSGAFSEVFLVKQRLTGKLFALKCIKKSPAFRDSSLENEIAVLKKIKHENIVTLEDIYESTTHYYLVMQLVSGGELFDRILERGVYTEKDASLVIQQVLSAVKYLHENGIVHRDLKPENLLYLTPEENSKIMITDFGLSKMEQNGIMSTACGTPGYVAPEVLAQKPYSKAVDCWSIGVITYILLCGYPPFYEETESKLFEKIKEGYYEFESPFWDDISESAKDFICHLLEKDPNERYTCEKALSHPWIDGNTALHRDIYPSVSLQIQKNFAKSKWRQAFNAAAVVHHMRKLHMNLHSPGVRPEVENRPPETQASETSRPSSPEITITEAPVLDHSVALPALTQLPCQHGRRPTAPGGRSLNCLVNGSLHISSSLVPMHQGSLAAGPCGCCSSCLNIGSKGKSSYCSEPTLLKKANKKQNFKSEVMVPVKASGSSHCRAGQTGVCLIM
# CSF1R-autoinhibited, sequence (P07333 whole entry): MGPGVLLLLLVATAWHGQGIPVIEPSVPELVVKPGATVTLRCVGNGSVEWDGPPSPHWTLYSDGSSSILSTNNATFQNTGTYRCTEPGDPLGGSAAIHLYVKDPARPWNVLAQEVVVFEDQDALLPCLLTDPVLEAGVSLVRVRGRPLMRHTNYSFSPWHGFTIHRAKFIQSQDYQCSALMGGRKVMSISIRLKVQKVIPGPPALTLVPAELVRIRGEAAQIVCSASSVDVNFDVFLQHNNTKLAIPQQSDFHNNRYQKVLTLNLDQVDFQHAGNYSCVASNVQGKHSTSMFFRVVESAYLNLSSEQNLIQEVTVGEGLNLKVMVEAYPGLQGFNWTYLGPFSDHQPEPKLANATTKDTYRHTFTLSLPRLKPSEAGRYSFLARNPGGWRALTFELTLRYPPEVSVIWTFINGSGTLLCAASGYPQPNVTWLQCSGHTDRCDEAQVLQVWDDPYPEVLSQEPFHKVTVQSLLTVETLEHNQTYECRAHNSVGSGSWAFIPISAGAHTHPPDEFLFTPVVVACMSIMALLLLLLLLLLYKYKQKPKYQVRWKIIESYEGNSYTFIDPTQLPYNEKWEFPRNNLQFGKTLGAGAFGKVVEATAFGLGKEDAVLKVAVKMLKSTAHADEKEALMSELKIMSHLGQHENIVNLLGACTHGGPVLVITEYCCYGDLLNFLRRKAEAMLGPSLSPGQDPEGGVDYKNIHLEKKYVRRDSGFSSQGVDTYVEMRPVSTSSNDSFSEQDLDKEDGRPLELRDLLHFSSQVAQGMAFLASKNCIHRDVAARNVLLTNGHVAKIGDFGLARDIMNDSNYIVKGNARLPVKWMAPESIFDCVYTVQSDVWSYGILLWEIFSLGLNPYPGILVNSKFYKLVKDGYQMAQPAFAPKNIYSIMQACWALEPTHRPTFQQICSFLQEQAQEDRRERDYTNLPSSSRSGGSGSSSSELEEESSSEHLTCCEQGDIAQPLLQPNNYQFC
# HIPK1, sequence (Q86Z02 whole entry): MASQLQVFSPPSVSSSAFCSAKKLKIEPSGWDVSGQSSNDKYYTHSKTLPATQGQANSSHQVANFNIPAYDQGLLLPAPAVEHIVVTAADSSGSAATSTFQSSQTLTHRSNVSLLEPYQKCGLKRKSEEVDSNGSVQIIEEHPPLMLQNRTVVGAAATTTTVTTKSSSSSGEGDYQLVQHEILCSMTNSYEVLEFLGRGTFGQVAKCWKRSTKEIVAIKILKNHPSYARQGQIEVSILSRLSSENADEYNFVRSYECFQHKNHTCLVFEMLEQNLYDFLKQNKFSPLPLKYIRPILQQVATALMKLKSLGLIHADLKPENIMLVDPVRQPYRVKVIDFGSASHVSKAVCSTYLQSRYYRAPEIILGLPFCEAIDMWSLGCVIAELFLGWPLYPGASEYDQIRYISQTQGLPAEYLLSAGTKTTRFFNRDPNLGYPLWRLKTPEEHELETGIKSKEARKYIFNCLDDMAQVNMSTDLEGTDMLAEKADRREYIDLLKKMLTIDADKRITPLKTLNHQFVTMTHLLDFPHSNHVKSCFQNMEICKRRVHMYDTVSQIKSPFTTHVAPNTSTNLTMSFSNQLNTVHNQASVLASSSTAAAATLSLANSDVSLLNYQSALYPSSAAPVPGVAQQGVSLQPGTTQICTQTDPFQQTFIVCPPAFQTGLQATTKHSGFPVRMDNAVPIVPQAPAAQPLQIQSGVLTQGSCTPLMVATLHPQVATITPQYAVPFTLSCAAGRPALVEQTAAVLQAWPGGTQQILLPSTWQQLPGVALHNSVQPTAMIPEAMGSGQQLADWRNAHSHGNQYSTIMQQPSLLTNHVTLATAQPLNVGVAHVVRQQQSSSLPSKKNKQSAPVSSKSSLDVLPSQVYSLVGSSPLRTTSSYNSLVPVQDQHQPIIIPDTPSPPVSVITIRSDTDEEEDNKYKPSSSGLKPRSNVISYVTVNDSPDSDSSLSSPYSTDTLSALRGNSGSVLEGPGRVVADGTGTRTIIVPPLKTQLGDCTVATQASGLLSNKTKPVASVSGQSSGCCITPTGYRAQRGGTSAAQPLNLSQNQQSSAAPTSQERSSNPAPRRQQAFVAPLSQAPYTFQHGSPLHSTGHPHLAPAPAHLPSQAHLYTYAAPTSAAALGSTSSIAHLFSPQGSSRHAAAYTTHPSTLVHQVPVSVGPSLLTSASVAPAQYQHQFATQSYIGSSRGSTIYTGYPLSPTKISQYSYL
# T5 sequence (P45985 whole entry): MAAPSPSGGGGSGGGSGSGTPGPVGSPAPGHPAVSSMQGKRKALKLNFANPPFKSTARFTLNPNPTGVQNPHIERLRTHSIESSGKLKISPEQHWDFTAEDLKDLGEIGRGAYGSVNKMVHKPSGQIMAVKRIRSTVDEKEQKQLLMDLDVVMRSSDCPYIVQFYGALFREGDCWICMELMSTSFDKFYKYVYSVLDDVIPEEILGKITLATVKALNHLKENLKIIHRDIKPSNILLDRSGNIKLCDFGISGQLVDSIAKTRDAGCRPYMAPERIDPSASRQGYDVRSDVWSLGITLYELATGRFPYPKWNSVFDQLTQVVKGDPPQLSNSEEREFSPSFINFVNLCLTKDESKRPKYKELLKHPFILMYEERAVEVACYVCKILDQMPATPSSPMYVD
smiles,measurement,setting,value
Cn1c(=O)[nH]c2ccc(-c3cccc(C(=O)NC4CCn5ccnc5C4)c3)cc21 (stereo not shown) [Z36-MP5],remaining binding at 1 µM,[1],82%
same,remaining binding at 1 µM,[2],39%
same,remaining binding at 1 µM,[3],60%
same,remaining binding at 1 µM,[4],56%
same,remaining binding at 1 µM,[5],99%
same,remaining binding at 1 µM,[6],55%
same,remaining binding at 1 µM,[7],54%
same,remaining binding at 1 µM,[8],86%
same,remaining binding at 1 µM,[9],70%
same,remaining binding at 1 µM,[10],100%
same,remaining binding at 1 µM,[11],61%
same,remaining binding at 1 µM,[12],54%
same,remaining binding at 1 µM,[13],59%
same,remaining binding at 1 µM,[14],84%
same,remaining binding at 1 µM,[15],99%
same,remaining binding at 1 µM,[16],82%
same,remaining binding at 1 µM,[17],69%
same,remaining binding at 1 µM,[18],83%
same,remaining binding at 1 µM,[19],54%
same,remaining binding at 1 µM,[20],57%
same,remaining binding at 1 µM,[21],64%
same,remaining binding at 1 µM,[22],93%
same,remaining binding at 1 µM,[23],55%
same,remaining binding at 1 µM,[24],90%
same,remaining binding at 1 µM,[25],99%
